PubChem BioAssay (NCI)
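Growth conditions: 96-well plates. Treatment: test compound, 48 hours, 5 concentrations. Analysis: linear interpolation between bracketing concentrations; unreached endpoints set to highest concentration. GI50: concentration for 50% inhibition of growth. TGI: concentration producing complete growth inhibition.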

Legend:
Experiment in all cases: NCI anticancer screen, dose series, 48 h
SK-MEL-28 melanoma = system: SK-MEL-28 melanoma
T-47D breast = system: T-47D breast
IGROV1 ovarian = system: IGROV1 ovarian
SK-MEL-5 melanoma = system: SK-MEL-5 melanoma
SF-268 CNS = system: SF-268 CNS
NCI-H522 lung = system: NCI-H522 lung
SR leukemia = system: SR leukemia
OVCAR-8 ovarian = system: OVCAR-8 ovarian
HCT-116 colon = system: HCT-116 colon
TK-10 renal = system: TK-10 renal
MOLT-4 leukemia = system: MOLT-4 leukemia
SN12C renal = system: SN12C renal
LOX IMVI melanoma = system: LOX IMVI melanoma
SK-MEL-2 melanoma = system: SK-MEL-2 melanoma
OVCAR-3 ovarian = system: OVCAR-3 ovarian
HCC-2998 colon = system: HCC-2998 colon
NCI-H226 lung = system: NCI-H226 lung
SW-620 colon = system: SW-620 colon
A498 renal = system: A498 renal
HS 578T breast = system: HS 578T breast
PC-3 prostate = system: PC-3 prostate
UACC-62 melanoma = system: UACC-62 melanoma
KM12 colon = system: KM12 colon
HOP-92 NSCLC = system: HOP-92 NSCLC
SF-539 CNS = system: SF-539 CNS
HT29 colon = system: HT29 colon
HCT-15 colon = system: HCT-15 colon
HOP-62 NSCLC = system: HOP-62 NSCLC
OVCAR-5 ovarian = system: OVCAR-5 ovarian
MDA-MB-231 breast = system: MDA-MB-231 breast
CCRF-CEM leukemia = system: CCRF-CEM leukemia
OVCAR-4 ovarian = system: OVCAR-4 ovarian
MCF7 breast = system: MCF7 breast
SNB-19 CNS = system: SNB-19 CNS
786-0 renal = system: 786-0 renal
A549 NSCLC = system: A549 NSCLC
NCI/ADR-RES ovarian = system: NCI/ADR-RES ovarian
NCI-H460 lung = system: NCI-H460 lung
DU-145 prostate = system: DU-145 prostate
U251 CNS = system: U251 CNS
NCI-H23 lung = system: NCI-H23 lung
EKVX NSCLC = system: EKVX NSCLC
BT-549 breast = system: BT-549 breast
ACHN renal = system: ACHN renal
SF-295 CNS = system: SF-295 CNS
UO-31 renal = system: UO-31 renal
HL-60(TB) leukemia = system: HL-60(TB) leukemia
SK-OV-3 ovarian = system: SK-OV-3 ovarian

## CCOC(=O)c1cc(C(=O)c2cc(OC)c(OC)c(OC)c2)n2nc(C)ccc12
SK-MEL-28 melanoma
  GI50: 12000 nM
  TGI: > 100000 nM
T-47D breast
  GI50: > 100000 nM
  TGI: > 100000 nM
IGROV1 ovarian
  GI50: 379 nM
  TGI: > 100000 nM
SK-MEL-5 melanoma
  GI50: 58.5 nM
  TGI: 3320 nM
SF-268 CNS
  GI50: 550 nM
  TGI: > 100000 nM
NCI-H522 lung
  GI50: 171 nM
  TGI: > 100000 nM
SR leukemia
  GI50: 48.1 nM
  TGI: > 100000 nM
OVCAR-8 ovarian
  GI50: 518 nM
  TGI: > 100000 nM
HCT-116 colon
  GI50: 164 nM
  TGI: > 100000 nM
TK-10 renal
  GI50: > 100000 nM
  TGI: > 100000 nM
MOLT-4 leukemia
  GI50: 396 nM
  TGI: > 100000 nM
SN12C renal
  GI50: 665 nM
  TGI: > 100000 nM
LOX IMVI melanoma
  GI50: 498 nM
  TGI: > 100000 nM
SK-MEL-2 melanoma
  GI50: 495 nM
  TGI: > 100000 nM
OVCAR-3 ovarian
  GI50: 64.8 nM
  TGI: 1270 nM
HCC-2998 colon
  GI50: 493 nM
  TGI: > 100000 nM
NCI-H226 lung
  GI50: 45000 nM
  TGI: > 100000 nM
SW-620 colon
  GI50: 68.7 nM
  TGI: > 100000 nM
A498 renal
  GI50: 76.2 nM
  TGI: 931 nM
HS 578T breast
  GI50: 190 nM
  TGI: > 100000 nM
PC-3 prostate
  GI50: 93.9 nM
  TGI: > 100000 nM
UACC-62 melanoma
  GI50: 61.5 nM
  TGI: > 100000 nM
KM12 colon
  GI50: 57.7 nM
  TGI: > 100000 nM
HOP-92 NSCLC
  GI50: 3520 nM
  TGI: > 100000 nM
SF-539 CNS
  GI50: 130 nM
  TGI: 771 nM
HT29 colon
  GI50: 133 nM
  TGI: > 100000 nM
HCT-15 colon
  GI50: 84.4 nM
  TGI: > 100000 nM
HOP-62 NSCLC
  GI50: 398 nM
  TGI: > 100000 nM
OVCAR-5 ovarian
  GI50: 472 nM
  TGI: > 100000 nM
MDA-MB-231 breast
  GI50: 524 nM
  TGI: > 100000 nM
CCRF-CEM leukemia
  GI50: 212 nM
  TGI: > 100000 nM
OVCAR-4 ovarian
  GI50: 1720 nM
  TGI: > 100000 nM
MCF7 breast
  GI50: 48.1 nM
  TGI: > 100000 nM
SNB-19 CNS
  GI50: 420 nM
  TGI: > 100000 nM
786-0 renal
  GI50: 335 nM
  TGI: > 100000 nM
A549 NSCLC
  GI50: 223 nM
  TGI: > 100000 nM
NCI/ADR-RES ovarian
  GI50: 123 nM
  TGI: 1930 nM
NCI-H460 lung
  GI50: 133 nM
  TGI: > 100000 nM
DU-145 prostate
  GI50: 391 nM
  TGI: > 100000 nM
U251 CNS
  GI50: 331 nM
  TGI: > 100000 nM
NCI-H23 lung
  GI50: 418 nM
  TGI: > 100000 nM
EKVX NSCLC
  GI50: 479 nM
  TGI: > 100000 nM
BT-549 breast
  GI50: 878 nM
  TGI: > 100000 nM
ACHN renal
  GI50: 524 nM
  TGI: > 100000 nM
SF-295 CNS
  GI50: 65.7 nM
  TGI: > 100000 nM
UO-31 renal
  GI50: 452 nM
  TGI: > 100000 nM
HL-60(TB) leukemia
  GI50: 160 nM
  TGI: 588 nM
SK-OV-3 ovarian
  GI50: 546 nM
  TGI: > 100000 nM
